# Experimental data published in US12433882B2, “Treatments for amyotrophic lateral sclerosis using dazucorilant” (Corcept Therapeutics Incorporated, priority 2022, dated 2025).
# Tested on: effect of prednisone on eosinophils, lymphocytes, neutrophils, osteocalcin
# Test: First In Human study Part 3, proof of pharmacological effect (prednisone challenge)
# Type: in vivo
# Description: Linear mixed model of PD parameter estimates from part 3 of the FIE study, including terms for treatment fitted as a fixed effect, subject fitted as a random effect, and baseline concentration values fitted as a covariate. AUEC, area under the effect curve; cfb, change from baseline; CI, confidence interval; Emax, maximum change; ns, not significant.
compound,measurement,setting,value
"C[C@]12C=CC(=O)C=C1CC[C@@H]1[C@@H]2C(=O)C[C@@]2(C)[C@H]1CC[C@]2(O)C(=O)CO [Prednisone, prednisone]",EOSINOPHILS AUEC(0-24) cfb (adjusted arithmetic mean),Prednisone (25 mg) alone,−2.80 109*h/L
same,LYMPHOCYTES AUEC(0-24) cfb (adjusted arithmetic mean),Prednisone (25 mg) alone,−2.470 109*h/L
same,NEUTROPHILS AUEC(0-24) cfb (adjusted arithmetic mean),Prednisone (25 mg) alone,74.7 109*h/L
same,"effect of a single dose on eosinophils, lymphocytes, osteocalcin and neutrophils",single dose of prednisone,"decreased eosinophils, lymphocytes, and osteocalcin, and increased neutrophils"
